Data reported in patent US12492403B2, “Aptamers and the use thereof in the treatment of cancer” (FUNDACIÓN PARA LA INVESTIGACIÓN BIOMÉDICA DEL HOSPITAL …, priority 2018, dated 2025).

Legend:
AKT = assay: Western blot of phosphorylation, combined therapy study; type: cell-based, human; conditions: MDA-MB-231 and MCF7 cells, 24 hours
Experimental: (§1) FIG. 22A & 22B. Combined therapy studies of apMNKQ2 and everolimus. […] The different antibodies used are indicated.
(§2) Seventy-two hours after treatment, MTT activity was measured.

eIF4E = assay: as above; type: cell-based, human; conditions: MDA-MB-231 and MCF7 cells, 24 hours
Experimental: as §1, §2

ribosomal protein S6 = assay: as above; type: cell-based, human; conditions: MDA-MB-231 and MCF7 cells, 24 hours
Experimental: as §1, §2

MCF7 cells [1] = conditions: cells with IC50 greater than 1 nM are considered resistant; cited from earlier work
MDA-MB-231 cells [2] = conditions: cells with IC50 greater than 1 nM are considered resistant; cited from earlier work
MCF7 cells [3] = assay: MTT activity assay, aptamers transfected with Lipofectamine 2000; type: cell-based, human; conditions: MCF7, aptamer 250 nM, 48 hours after transfection
Experimental: (§3) FIG. 3. Effect of the aptamers on MTT activity of MCF7 and MDA-MB-231 cells. The cells were seeded in 96-well plates at a density of 10^4 cells/well. After 16-24 hours, they were transfected with aptamers apMNKQ1, apMNKQ2, apMNKQ3, and apMNKQ4 at 250 nM for 48 hours after which MTT activity assays were performed. The bars represent the mean±SEM of 3-6 independent experiments (*p<0.05, **p<0.01, and ***p<0.001 with respect to the control aptamer AT).
(§4) FIGS. 8A-8C. Effect of aptamer apMNKQ2 on MTT activity of breast cell lines. MCF7, MDA-MB-231, and MDA-MB-468 cells were seeded in 96-well plates at a density of 10^4 cells/well. […] The graphs represent the means±SEM of 3 independent experiments (*p<0.05, **p<0.01, and ***p<0.001 with respect to the control AT).
(§5) The Lipofectamine™ 2000 system (Invitrogen, USA) was used to treat cells with the different aptamers. To prepare the DNA-lipofectamine complex, lipofectamine and DNA were separately diluted in opti-MEM (Gibco, USA) and left to incubate at room temperature for 5 minutes. They were then mixed to form lipofectamine-DNA complexes and incubated for 20 minutes at room temperature. Finally, the mixture was added to the cells that had been washed twice with antibiotic-free medium to prevent the interference thereof with lipofectamine. The cells were incubated at 37° C. for 5 hours, after which the reagent was removed and a complete medium was added.
(§6) MTT activity. The cells were seeded in 96-well plates and after having been transfected, the culture medium was removed and 100 μL/well of MTT at 1 mg/ml in culture medium were added. The plates were incubated for 90 minutes in an incubator with a moisture-saturated environment at 37° C. and 5% CO2/[…] and 100 μL/well of a lysis solution (10% SDS and 10 mM HCl) were added for dissolving the crystals. After 48 hours, the reduction of MTT was determined by means of spectrophotometry in Infinite F200 (TECAN, Switzerland) at 540 nm.
(§7) The results were expressed as the percentage of viability with respect to the control or in absorbance units.

MDA-MB-231 cells [4] = assay: as above; type: cell-based, human; conditions: MDA-MB-231, aptamer 250 nM, 48 hours after transfection
Experimental: as §3, §4, §5, §6, §7

MNK1 = assay: Recognition of the two isoforms of MNK1 by precursor and truncated aptamers; type: binding
DNase I = conditions: 1 unit of DNase I, 5 minutes at 37° C., same assay conditions (Garcia-Recio, Pinto-Diez et al. 2016); cited from earlier work

With CO[C@H]1C[C@@H]2CC[C@@H](C)[C@@](O)(O2)C(=O)C(=O)N2CCCC[C@H]2C(=O)O[C@H]([C@H](C)C[C@@H]2CC[C@@H](OCCO)[C@H](OC)C2)CC(=O)[C@H](C)/C=C(\C)[C@@H](O)[C@@H](OC)C(=O)[C@H](C)C[C@H](C)/C=C/C=C/C=C/1C [everolimus, 40-O-(2-hydroxyethyl) derivative of sirolimus, reference compound] the “phosphorylation of AKT” value (AKT) was “increased”, the “phosphorylation of eIF4E” value (eIF4E) was “increased” and the “phosphorylation of ribosomal protein S6 (dependent on mTOR activity)” value (ribosomal protein S6) was “inhibiting mTOR”. For the same molecule, the “sensitivity of the cell line to the drug” value (MCF7 cells [1]) was “resistant” and the “sensitivity of the cell line to the drug” value (MDA-MB-231 cells [2]) was “resistant”.

In the case of “5′-GGGTGGTATGGCGCGTTGGCCC-3′ (DNA, backbone and methylation of C not given here; further chemistry not fully specified) [apMNKQ4, 22-nucleotide aptamer designed from apMNK2FT]”, the “effect on MTT activity” value (MCF7 cells [3]) is reported as “partial effect” and the “inhibition of MTT activity” value (MDA-MB-231 cells [4]) is reported as “about 15%”.

With “5′GGGTGGGGGTGGT-3′ (DNA, backbone not given here; further chemistry not fully specified) [apMNKQ3, 13-nucleotide aptamer designed from apMNK2FT]” the “effect on MTT activity” value (MCF7 cells [3]) was “partial effect” and the “inhibition of MTT activity” value (MDA-MB-231 cells [4]) was “about 15%”.

With “5′TGGGGTGGGCGGGCGGGG-3′ (DNA, backbone and methylation of C not given here; further chemistry not fully specified) [apMNKQ1, 18-nucleotide aptamer designed from apMNK2FT based on G-quadruplex formation]” the “effect on MTT activity” value (MCF7 cells [3]) was “partial effect” and the “inhibition of MTT activity” value (MDA-MB-231 cells [4]) was 30%.

For “5′-TTTTTGGGGTGGGCGGGCGGGGGTGGGGGTGGTATGGCGCGTTGGCCC-3′ (DNA, backbone and methylation of C not given here; further chemistry not fully specified) [apMNK2FT, truncated 48-nucleotide aptamer derived from precursor aptamer apMNK2F]”, the “recognition of the two isoforms of MNK1 (MNK1a, MNK1b)” value (MNK1) was “recognized both isoforms in a similar manner”.

B1: apMNK2F: precursor (parental) aptamer against MNK1, described in Garcia-Recio, Pinto-Diez et al. 2016 (nucleic acid)
DNA: GCGGATGAAGACTGGTGTGGGGTGGGCGGGCGGGGGTGGGGGTGGTATGGCGCGTTGGCCCTAAATACGAGCAAC
modifications: DNA, backbone and methylation of C not given here; further chemistry not fully specified
In the case of B1, the “recognition of the two isoforms of MNK1 (MNK1a, MNK1b)” value (MNK1) is listed as “higher affinity for MNK1b” and the stability (DNase I) is listed as 0%.
